From patent US20260001946A1, “TREATMENT OF A DISEASE OR CONDITION IN A TISSUE ORIGINATING FROM THE ENDODERM” (BT Bidco, Inc., priority 2018, published 2026)
Where a name gives a salt, the structure may show the parent alone. Read-outs that look alike come from different tables or passages of the source.

Assays:
[1] = system: IL-6, GM-CSF, IL-15, IL-2, IL-12, IL-13, TNF-α, INF-γ
[2] = Pharmacokinetics of oral vs intra-cecal tacrolimus: blood, rectal contents, GI tissue and luminal content (Example 13); set-up: species or system Yorkshire-Cross farm swine; settings: in vivo
Text: (§1) No further randomization procedure was employed.

[3] = Tissue, plasma, rectal sample and GI content pharmacokinetics of tacrolimus, oral vs intra-cecal ingestible device (Example 10); set-up: species or system Yorkshire-Cross farm swine; settings: in vivo
Protocol: The primary objective of this study was to compare the tissue, plasma, rectal sample, and GI content pharmacokinetics of tacrolimus through oral versus intra-cecal ingestible device delivery in normal Yorkshire-Cross farm swine.
as §1
Animals in Group 1 received an ingestible device containing 0.8 mL of vehicle solution (80% alcohol, 20% HCO-60). Animals in Group 2 received orally […] liquid formulation of tacrolimus at 4 mg/0.8 mL per animal (Prograf: 5 mg/mL). Animals in Group 3 received intra-cecally an ingestible device containing tacrolimus at 1 mg in 0.8 mL per ingestible device. Animals in Group 4 received intra-cecally an ingestible device containing tacrolimus at 2 mg in 0.8 mL per ingestible device. Animals in Group 5 received intra-cecally an ingestible device containing tacrolimus at 4 mg in 0.8 mL per ingestible device. To control for potential confounding effects of the surgery, all groups fast on Day −11 at least 24 hr before being subjected to anesthesia followed by surgical placements of a cecal port by a veterinary surgeon at Day −10. All animals were fasted for at least 12 hr prior to dosing on Day 1. Animals were dosed via either intra-cecal dosing (IC) or oral dosing (PO) at Day 1 (between 6-8 p.m.). All animals resumed feeding at approximately 4 hours after dose (11-12 p.m. after dosing).
Animals in Group 1 (Vehicle Control) were administered a single intra-cecal ingestible device containing 0.8 mL Vehicle solution (80% alcohol, 20% castor oil (HCO-60) on Day 1. On Day −10 the animals were anesthetized, and a veterinary surgeon surgically placed an intra-cecal port in each animal. On Day 1, each animal was placed into a sling then a single intra-cecal ingestible device containing 0.8 mL vehicle solution (80% alcohol, 20% castor oil (HCO-60)) is introduced by the veterinary surgeon into the cecum via the cecal port in each animal. Following ingestible device placement, the animals were removed from the slings and placed back into their pens with water. All animals resumed feeding at approximately 4 hours after dose. […] A total of 60 samples were collected.
Approximately 200˜400 mg of rectal content were collected, if available, with a fecal swab (Copan Diagnostics Nylon Flocked Dry Swabs, 502CS01). The fecal swab was pre-weighed and weighed after collection in the collection tube (Sterile Tube and Cap No Media, PFPM913S), and the sample weight was recorded. The fecal swab was broken via the breakpoint, and was stored in the collection tube, and immediately frozen at −70° C. […] Immediately following euthanasia, tissue was collected.
For tissue necropsy, small intestine fluid and cecal fluid were collected separately from all the animals into two separate square plastic bottles, and stored at −20° C. The length and diameter of the cecum and the colon was measured from one animal in each group and recorded for reference. Tissues were collected for pharmacokinetic analyses and include mesenteric lymph nodes, a Peyer's Patch, and five gastrointestinal sections, including cecum, proximal colon, transverse colon, distal colon, and rectum. All samples were weighed, and the tissue sample weights were recorded. […] Around 3 grams of the total punched sample were collected into a pre-weighed 15-mL conical tube, and the tissue weight was recorded. […]

[4] = Tacrolimus blood concentration and AUC0-12 hours after IC or PO administration; settings: female, Yorkshire-Cross, swine, in vivo
Protocol: FIG. 77 is a graph showing the mean concentration of tacrolimus in the blood 1 hour, 2 hours, 3 hours, 4 hours, 6 hours and 12 hours after intracecal (IC) or oral administration (PO) of tacrolimus to swine as described in Example 13.
FIG. 78 is a graph showing the AUC0-12 hours of tacrolimus in the blood after intracecal (IC) or oral administration (PO) of tacrolimus in swine as described in Example 13.
FIG. 87 is a graph showing the mean concentration of tacrolimus in the blood of swine 1 hour, 2 hours, 3 hours, 4 hours, 6 hours, and 12 hours after intracecal (IC) or oral administration (PO) of tacrolimus as described in Example 10.
FIG. 88 is a graph showing the AUC0-12 hours of tacrolimus in the blood of swine after intracecal (IC) or oral administration (PO) of tacrolimus as described in Example 10.

[5] = female, Yorkshire-Cross, swine, in vivo, po, 0.09 mg/kg
Protocol: FIG. 76 is a graph showing the mean concentration of tacrolimus in the cecum tissue and the proximal colon tissue 12 hours after intracecal or oral administration of tacrolimus to swine as described in Example 10.
FIG. 79 is a graph showing the mean concentration of tacrolimus in the cecum tissue, the proximal colon tissue, the spiral colon tissue, the transverse colon tissue, and the distal colon tissue after intracecal (IC) or oral administration (PO) of tacrolimus in swine as described in Example 13. ****P<0.0001, ***P<0.001.
FIG. 90 is a graph showing the mean concentration of tacrolimus in the cecum, the proximal colon, the spiral colon, the transverse colon, and the distal colon of swine after intracecal (IC) or oral administration (PO) of tacrolimus as described in Example 10.

Structure (SMILES): C[C@@H]1CCN(C(=O)CC#N)C[C@@H]1N(C)c1ncnc2[nH]ccc12 [tofacitinib citrate]
- IL-6 expression in plasma ([1]; PO or IC administration, 1 h and 3 h post-treatment): inhibition of IL-6 expression
- inhibition of IL-6 expression in colon tissue ([1]; all IC treated groups and high dose PO group (45 mg/kg) (FIG. 112B)): sustained through 24 h post-dose
- GM-CSF levels in plasma or colon tissue ([1]; between IC and PO treatment groups): nor was there a significant difference
- IL-6 inhibition in colon tissue ([1]; low dose PO group (15 mg/kg), by 12 h post-dose): Recovery from IL-6 inhibition was observed

Structure (SMILES): C=CC[C@@H]1/C=C(\C)C[C@H](C)C[C@H](OC)[C@H]2O[C@@](O)(C(=O)C(=O)N3CCCC[C@H]3C(=O)O[C@H](/C(C)=C/[C@@H]3CC[C@@H](O)[C@H](OC)C3)[C@H](C)[C@@H](O)CC1=O)[C@H](C)C[C@@H]2OC [tacrolimus]
- concentration at 12 h ([2]; female, Yorkshire-Cross, swine, 0.02 mg/kg, Trough (12 hr)): 0.746 ± 0.038 ng/mL
- concentration at 12 h ([2]; female, Yorkshire-Cross, swine, 0.04 mg/kg, Trough (12 hr)): 1.96 ± 0.491 ng/mL
- concentration at 12 h ([2]; female, Yorkshire-Cross, swine, 0.09 mg/kg, Trough (12 hr)): 4.35 ± 0.561 ng/mL
- Ratio Tissue(mean)/Trough(12 hr) ([2]; female, Yorkshire-Cross, swine, po, 0.09 mg/kg, 12 h): 0
- Kp at 12 h ([2]; female, Yorkshire-Cross, swine, po, 0.09 mg/kg, Ratio Tissue(mean)/Trough(12 hr)): 0
- concentration at 12 h ([2]; female, Yorkshire-Cross, swine, po, 0.09 mg/kg, Trough (12 hr)): 0.568 ± 0.291 ng/mL
- concentration at 12 h ([2]; female, Yorkshire-Cross, swine, po, 0.09 mg/kg, Trough level (12 hr)): 0.568 ng/mL
- mean concentration of tacrolimus in the spiral colon lumen, the transverse colon lumen, and the distal colon lumen [2]: statistically higher
- mean concentration of tacrolimus in the spiral colon tissue and the transverse colon tissue [2]: statistically higher
- mean concentration and AUC0-12 hours of tacrolimus in the blood ([2]; po, 0.09 mg/kg): higher
- exposure AUC [3]: < 2000-12 ng·h/mL
- mean concentration of tacrolimus in the cecum tissue and the proximate colon tissue [3]: higher
- tissue (spiral and transverse colon) and luminal content (spiral, transverse, and distal colon) concentrations [3]: Significantly higher
- level of tacrolimus in tissue ([3]; po): No measurable level
- rectal content concentration ([3]; po): no detectable level
- concentration at 12 h ([4]; 0.02 mg/kg): 0.746 ± 0.038 ng/mL
- concentration at 12 h ([4]; 0.04 mg/kg): 1.96 ± 0.491 ng/mL
- concentration at 12 h ([4]; 0.09 mg/kg): 4.35 ± 0.516 ng/mL
- concentration at 12 h ([4]; po, 0.09 mg/kg): 0.568 ± 0.291 ng/mL
- Tissue(mean) (ng/g)/AUG(0-12 hr) (ng · hr/mL) Ratio [5]: 0
- Tissue(mean) (ng/g)/AUG(0-12 hr) (ng · hr/mL) Ratio ([5]; 12 h): 0
